Values joined by “and” are separate entries in the source; they are usually repeats but may differ in a detail not shown here. Identical values can stand only once.

Results on ten molecules are retold here after patent US20040063681A1, “Methods for using gold (III) complexes as anti-tumor and anti-HIV agents” (priority 2002, published 2004).

The target of data set [1] is T1, HIV-1 reverse transcriptase (Human immunodeficiency virus type 1 group M subtype B, UniProt P04585).
T1 construct: treatment of HIV-1 RT in Lysis buffer (2 ng, 128.7 μL) with Complex 1j
The experiment in a line: HIV-1 reverse transcriptase activity, ELISA method. The conditions noted are these: for HIV-1 RT inhibition activity compared with the corresponding metal complex (1j, 1k): free-base porphyrins; for HIV-1 RT inhibition: drug concentration fixed at 6 μM. The format is biochemical. Here is the method:
HIV-1 reverse transcriptase activities were measured by an ELISA method (see Eberle et al, J. Virol. Methods, 40:347-356 (1992) performed by incubating the enzyme with digoxigenin-labeled deoxyuridin-5′-triphosphate (dUTP) and the biotin-labeled analogue during reverse transcription starting from the template/primer hybrid poly(A)•oligo(dT)15. After reverse transcription, the newly synthesized DNA was immobilized onto streptavidin-coated ELISA wells, and the incorporation of the dioxigenin-labeled dUTP was assayed by chemiluminescence method. For example, treatment of HIV-1 RT in Lysis buffer (2 ng, 128.7 μL) with Complex 1j (1.3 μL of […] stock solution) dissolved in TBS at 37° C. produced significant RT activity inhibition (˜95%) after 30 min incubation.
Background: In an ELISA, binding on a coated surface is turned into a signal by an enzyme label.

For data set [2], the system named is Human Hepatocellular Carcinoma (HepG2). The data set can be described thus: MTT cytotoxicity, HepG2. As to conditions: growth inhibition. The data set is classed as cell-based. The source says: (§1) Human promyelocytic leukemia (HL-60), human hepatocellular carcinoma (HepG2), Human cervix epitheloid carcinoma cells (HeLa) and human oral epidermoid carcinoma cells (KB-3-1), were obtained from American Type Culture Collection (ATCC) (Rockville, Md.). The multi-drug-resistant variant KB-V1 cell line was obtained by stepwise selections for vinblastine resistance as described by Shen et al., J. Biol. Chem. 261:7762-7770 (1986)], and was generously provided by Dr Michael Gottesman (NIH, Bethesda, Md.). Human nasopharyngeal carcinoma cells (SUNE1 and its cisplatin resistance variant, CNE1) were derived from poorly differentiated NPC in Chinese patients as described by Gu et al., Chin. J. Cancer 2:270-272 (1983), and were generously provided by Dr S. W. Tsao (The University of Hong Kong, Hong Kong, PRC). Cell culture flasks and 96 well microtitre plates were from Nalge Nunc hit. Culture medium, other medium constituents and phosphate buffered saline (PBS) were obtained from Gibco BRL (Rockville, Md.). Cell Proliferation Kit I (MTT) was purchased from Roche (Mannheim, Germany).
(§2) The anti-cancer activities of the gold(III) porphyrin complexes were evaluated toward some established human cancer cell lines: promyelocytic leukemia (HL-60), hepatocellular carcinoma (HepG2), cervix epitheloid carcinoma (HeLa), epidermoid carcinoma (KB-3-1) and its multi-drug resistant variant (KB-V1), nasopharyngeal carcinoma (SUNE1) and its cisplatin-resistant variant (CNE1). The experiments were carried out by following the MTT procedure (see Mosmann et al., J. Immunol. Methods 65:55-63 (1983). The IC50 values of the gold(III) porphyrin complexes together with that of cisplatin, and KAuCl4 are provided in Table 4a; and the IC50 values of the gold(III) Schiff-base and bis(pyridyl)carboxamide complexes are shown in Table 4b. The cytotoxicity profiles of some selected gold(III) porphyrin complexes toward SUNE1 and its cisplatin-resistant variant CNE1 are also shown in FIG. 7.

Data set [3] concerns Human Nasopharyngeal Carcinoma (SUNE1). The data set can be described thus: MTT cytotoxicity, SUNE1. The data set is classed as cell-based. The conditions noted are these: for IC50: MTT, growth inhibition. The source says:
(§3) Human promyelocytic leukemia (HL-60), human hepatocellular carcinoma (HepG2), Human cervix epitheloid carcinoma cells (HeLa) and human oral epidermoid carcinoma cells (KB-3-1), were obtained from American Type Culture Collection (ATCC) (Rockville, Md.). […] Cell culture flasks and 96 well microtitre plates were from Nalge Nunc hit. Culture medium, other medium constituents and phosphate buffered saline (PBS) were obtained from Gibco BRL (Rockville, Md.). Cell Proliferation Kit I (MTT) was purchased from Roche (Mannheim, Germany).

Data set [4] has as its system Human Cervix Epitheloid Carcinoma (HeLa). The data set can be described thus: MTT cytotoxicity, HeLa. The format is cell-based. As to conditions: for IC50: MTT, growth inhibition.
Source text: as §3

For data set [5], the system named is Human Promyelocytic Leukemia (HL-60). The experiment in a line: MTT cytotoxicity, HL-60. The format is cell-based. As to conditions: growth inhibition.
Source text: as §1, §2

The test system of data set [6] is Human Oral Epidermoid Carcinoma (KB-3-1). The data set can be described thus: MTT cytotoxicity, KB-3-1. The format is cell-based. As to conditions: for IC50: MTT, growth inhibition.
Source text: as §3

Data set [7] concerns Human Nasopharyngeal Carcinoma (cisplatin resistance, CNE1). The experiment in a line: MTT cytotoxicity, CNE1. The format is cell-based. As to conditions: for IC50: MTT, growth inhibition, cisplatin resistant.
Source text: as §3

The subject of data set [8] is Human Oral Epidermoid Carcinoma (multi-drug resistance, KB-V-1). The experiment in a line: MTT cytotoxicity, KB-V-1. The format is cell-based. The conditions noted are these: for IC50: MTT, growth inhibition, multi-drug resistant.
Source text: as §1
The anti-cancer activities of the gold(III) porphyrin complexes were evaluated toward some established human cancer cell lines: promyelocytic leukemia (HL-60), hepatocellular carcinoma (HepG2), cervix epitheloid carcinoma (HeLa), epidermoid carcinoma (KB-3-1) and its multi-drug resistant variant (KB-V1), nasopharyngeal carcinoma (SUNE1) and its cisplatin-resistant variant (CNE1).

Data set [9] in a line: Electrochemical measurements (cyclic voltammetry). The data set is classed as physicochemical. Here is the method: Electrochemical measurements. Electrochemical measurements were performed at room temperature after purging with nitrogen using 0.1 M tetrabutylammonium hexafluorophosphate (TBAP)/acetonitrile as supporting electrolyte. The working electrode was a glassy carbon (Atomergic Chemetal V25, geometric area of 0.35 cm^2) electrode and the counter electrode was platinum gauze. A nonaqueous Ag/AgNO3 (0.1 M in acetonitrile) reference electrode was contained in a separate compartment connected to the test solution via fine sintered glass disks. The ferrocenium/ferrocene couple was used as the internal standard. The redox properties of the gold(III) porphyrin complexes in non-aqueous medium (CH2Cl2 with 0.1 M nBu4NPF6) have been studied by cyclic voltammetry with glassy carbon and platinum as the working and counter electrodes, respectively. […] The effect of para-substitution on the electrochemical potentials has been examined by Hammett correlation analysis.

Data set [10] deals with calf thymus DNA. The data set can be described thus: UV-vis absorption titration with calf thymus DNA. The format is binding. As to conditions: for hypochromicity / intrinsic binding constant (Kb): Tris buffer. Here is the method: The calf thymus DNA was purchased from Sigma-Aldrich Chemical Co. and was purified by phenol-chloroform extraction. The DNA was dissolved in buffer (5 mM Tris, 5 mM NaCl, pH 7.2). The concentration (per base pair) of calf thymus DNA was determined spectrophotometrically on the basic of ε260, 13,200 M^−1cm^−1bp.
Absorption Titration. The binding interaction of the gold(III) porphyrins to duplex DNA has been studied by UV-vis spectroscopy.
where [ctDNA] is the concentration of DNA, Δεap═|εA−εB| in which εA=Aobs/[complex], and Δε=|εB−εF|. εB and εF correspond to the extinction coefficient of DNA-bound gold(III) porphyrin and the free gold(III) porphyrins, respectively.
The effect of temperature on the intrinsic binding constants was investigated. Using the van't Hoff equation (2): […]

[11] abbreviates: cyclic voltammetry, 0.1 M nBu4NPF6, glassy carbon, vs Cp2Fe^+/0.

What is called inhibition is the drop in the measured response relative to a control, in per cent. In general, IC50 refers to the concentration that gives 50% inhibition. With `Cc1cn(C2CC(N=[N+]=[N-])C(CO)O2)c(=O)[nH]c1=O` (stereo not shown) [AZT, 3′-azido-2′,3′-dideoxythymidine], the inhibition at 0.008 µM in data set [1] (AZT 8 nM alone, read-out: HIV-1 RT enzyme inhibition, alone) is 17 to 39%. Also, in data set [1] (ELISA, mean ± SE of at least three determinations, read-out: IC50 HIV-1 RT), the IC50 was 0.069 ± 0.008 µM.
On to `N.N.[Cl][Pt][Cl]` [Pt(NH3)2Cl2, reference compound], for which the IC50 was 13.5 µM in data set [2]; 12.6 µM in [3]; 11.2 µM in [4]; 16.8 µM in data set [5]; 13.2 µM in data set [6]; 40.8 µM in data set [7]. In [8], this molecule came in with an IC50 of 10.2 µM.
For the molecule `O=S(=O)(O)c1ccc(-c2c3nc(c(-c4ccc(S(=O)(=O)O)cc4)c4ccc([nH]4)c(-c4ccc(S(=O)(=O)O)cc4)c4nc(c(-c5ccc(S(=O)(=O)O)cc5)c5ccc2[nH]5)C=C4)C=C3)cc1` [[H2TPPS]^4−, meso-tetrakis(4-sulfonatophenyl)porphyrin], the “HIV-1 RT inhibition activity compared with the corresponding metal complex (1j, 1k)” value in data set [1] is on record as “substantially lower HIV-1 RT inhibition activities”.
Take `C[n+]1ccc(-c2c3nc(c(-c4cc[n+](C)cc4)c4ccc([nH]4)c(-c4cc[n+](C)cc4)c4nc(c(-c5cc[n+](C)cc5)c5ccc2[nH]5)C=C4)C=C3)cc1.[Cl-].[Cl-].[Cl-].[Cl-].[Zn]` [[Zn^II(TMPyP)]Cl4]: in [1], the “HIV-1 RT inhibition” value is given as 32%.
`COc1ccc(-c2c3nc(c(-c4ccc(OC)cc4)c4ccc([n-]4)c(-c4ccc(OC)cc4)c4nc(c(-c5ccc(OC)cc5)c5ccc2[n-]5)C=C4)C=C3)cc1.[Au+3].[Cl-]` [Complex 1c]: it took 0.76 µM to reach half-maximal inhibition in data set [2] (IC50). For the same molecule, in data set [3], the “IC50 ratio [cisplatin/gold (III) porphyrin complexes] SUNE1” value is recorded as 18.5 and the IC50 amounted to 0.68 µM. Also, in data set [4], the “IC50 ratio [cisplatin/gold (III) porphyrin complexes] HeLa” value is given as 17.0 and the IC50 amounted to 0.66 µM. This molecule yielded an IC50 in data set [5] of 0.88 µM. In addition, in [9] (setting [11]), the “Couple I (first reduction couple)” value is reported as −1.02 V and the “Couple II (second reduction couple)” value is recorded as −1.51 V. Besides, in [9] (relative to Y=H (Complex 1a)), the “ΔE1o (E^0Y − E^0H), couple I” value was −0.02 V and the “ΔE2^0 (E^0Y − E^0H), couple II” value was −0.02 V. In addition, in [7], the “IC50 ratio [cisplatin/gold (III) porphyrin complexes] CNE1” value is 53.0 and it took 0.77 µM to reach half-maximal inhibition (IC50).
With `CCc1c(CC)c2[n]3c1C=c1c(CC)c(CC)c4[n]1[Au]31[n]3c(c(CC)c(CC)c3C=c3c(CC)c(CC)c([n]31)=C2)C=4` [Complex 1h], the hypochromicity in data set [10] (291.4 K) stood at 30.1%; in data set [10] (296.8 K), 29.2%; in [10] (302.2 K) it was 28.0%; in data set [10] (305.5 K), 26.1%; in data set [10] (311.2 K), 24.4%. In addition, the “intrinsic binding constant (Kb)” value in data set [10] (291.4 K) is given as 4.14 × 10^6 dm^3mol^−1; in data set [10] (296.8 K), 2.73 × 10^6 dm^3mol^−1; in data set [10] (302.2 K), 1.51 × 10^6 dm^3mol^−1; in data set [10] (305.5 K), 1.27 × 10^6 dm^3mol^−1; in data set [10] (311.2 K), 0.96 × 10^6 dm^3mol^−1. The “ΔS°” value in [10] (binding to calf thymus DNA, van't Hoff analysis) is −17.3 calmol^−1K^−1 and −17.3 ± 0.7 calmol^−1K^−1. For the same molecule, the “ΔG° (298 K)” value in data set [10] (binding to calf thymus DNA, van't Hoff analysis, 298 K) is listed as −8.2 ± 0.7.
Regarding `COc1cc(-c2c3nc(c(-c4cc(OC)c(OC)c(OC)c4)c4ccc([n-]4)c(-c4cc(OC)c(OC)c(OC)c4)c4nc(c(-c5cc(OC)c(OC)c(OC)c5)c5ccc2[n-]5)C=C4)C=C3)cc(OC)c1OC.[Au+3].[Cl-]` [Complex 1f], the IC50 came out at 1.83 µM in [2]; 0.68 µM in data set [3]; 0.68 µM in [4]; 0.74 µM in data set [5]; 0.87 µM in data set [6]; 0.73 µM in data set [7]. For the same molecule, the IC50 in data set [8] was found to be 0.71 µM. The “IC50 ratio [cisplatin/gold (III) porphyrin complexes] SUNE1” value in data set [3] was 18.5. Moreover, the “IC50 ratio [cisplatin/gold (III) porphyrin complexes] HeLa” value in data set [4] stood at 16.5. Moreover, in [6], the “IC50 ratio [cisplatin/gold (III) porphyrin complexes] KB-3-1” value worked out at 15.1. The “IC50 ratio [cisplatin/gold (III) porphyrin complexes] CNE1” value in [7] worked out at 55.9. Further, in data set [8], the “IC50 ratio [cisplatin/gold (III) porphyrin complexes] KB-V1” value was 5.62.
With `CCCC[N+](CCCC)(CCCC)CCCC.[Au+3].[Cl-].[Cl-].[Cl-].[Cl-]` [nBu4N[AuCl4], Tetrabutylammonium tetrachloroaurate, reference compound], the IC50 in [2] came out at 11.2 µM; in [3], 9.94 µM; in data set [4], 8.41 µM; in data set [5] it was 9.71 µM; in data set [6], 10.3 µM; in data set [7], 11.5 µM.
In the case of `[Au+].[Cl-].c1ccc(P(c2ccccc2)c2ccccc2)cc1` [[(Ph3P)Au^ICl]], in data set [1], the “HIV-1 RT inhibition” value is on record as 43%.
Take `C[n+]1ccc(-c2c3nc(c(-c4cc[n+](C)cc4)c4ccc([nH]4)c(-c4cc[n+](C)cc4)c4nc(c(-c5cc[n+](C)cc5)c5ccc2[nH]5)C=C4)C=C3)cc1` [[H2TMPyP]^4+, Meso-tetrakis(N-methylpyridinium-4-yl)porphyrin]: the “HIV-1 RT inhibition activity compared with the corresponding metal complex (1j, 1k)” value in [1] is on record as “substantially lower HIV-1 RT inhibition activities”.
